This assay concerns the target T1, ITK (Homo sapiens, UniProt Q08881).
T1 sequence (Q08881 1-620): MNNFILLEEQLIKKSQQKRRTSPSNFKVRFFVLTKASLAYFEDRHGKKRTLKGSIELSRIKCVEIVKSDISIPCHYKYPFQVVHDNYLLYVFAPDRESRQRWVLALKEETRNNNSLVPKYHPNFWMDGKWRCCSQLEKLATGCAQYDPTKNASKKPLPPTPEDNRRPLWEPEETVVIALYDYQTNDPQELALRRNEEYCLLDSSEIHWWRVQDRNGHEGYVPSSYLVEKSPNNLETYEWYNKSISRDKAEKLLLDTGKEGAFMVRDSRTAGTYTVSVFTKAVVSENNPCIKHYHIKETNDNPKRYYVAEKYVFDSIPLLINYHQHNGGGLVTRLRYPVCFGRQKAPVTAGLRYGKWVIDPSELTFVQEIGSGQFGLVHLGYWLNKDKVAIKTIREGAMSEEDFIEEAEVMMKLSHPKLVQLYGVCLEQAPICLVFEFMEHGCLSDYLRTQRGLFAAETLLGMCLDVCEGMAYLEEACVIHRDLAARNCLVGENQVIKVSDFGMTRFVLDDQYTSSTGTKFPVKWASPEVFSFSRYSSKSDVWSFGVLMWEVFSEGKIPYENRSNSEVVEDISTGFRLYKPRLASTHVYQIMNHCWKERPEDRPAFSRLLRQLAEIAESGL
As to the kind of experiment: ITK degradation MSD (Meso Scale Discovery) assay. In kind it is cell-based. Also on record: either human Jurkat (Clone E6-1 ATCC TIB-152) or Motl4 (ATCC CRL-1552), were plated; endogenous in cells; host or cells: Jurkat clone E6-1 (ATCC TIB-152) or Molt4 (ATCC CRL-1552). The note with it: Jurkat or Molt4 cells, 4 or 6 hrs. The procedure:
ITK Degradation MSD (Meso Scale Discovery) Assay Compound dilution series (7-point, 5 fold dilutions in DMSO, rows B-H with replicate in Column 1⁄2, 3⁄4, 5⁄6, 7,8, at 2000× the final required concentrations were prepared in 96 well plates (Falcon, cat. no. 353077). Row A, Column 1-8 were control DMSO. The 2000× solutions ranged from 2 mM to 128 nM (final assay concentration range 1 μM to […]). The 2000× solutions were added to cells in […], for a final DMSO concentration of 0.5% and final assay compound concentration of 1×. For the cells, either human Jurkat (Clone E6-1 ATCC TIB-152) or Motl4 (ATCC CRL-1552), were plated at 1×10^6 cells/mL, 100 μL/well ([…]) in complete RPMI (10% FBS, 1% L-glutamine). Cells were incubated for 4 or 6 hrs at 32° C./6% CO2. Following incubation, plates were centrifuged at 1200 rpm for 5 min. supernatant was removed and 50 μL of cell lysis buffer ((MSD Tris lysis buffer (R60TX), Complete Mini EDTA-free protease inhibitor (Sigma 11836170001), Protease Inhibitor Cocktail (Sigma, P2714), Phosphatase Inhibitor Cocktail 2 and 3 (Sigma, P5726 and P0044), and Benzonase (Sigma, E1014)) was added to each well. Plates were sealed and shook at 4° C. for 30 min. Plates were centrifuged and 45 μL was removed for plate assays. Assay plate preparation: Meso Scale Discovery (MSD) multi-array sm spot 96 well plates (Goat anti-Rabbit L^45-RA), were blocked with 3% BSA blocking buffer (3% Bovine Serum Albumin (Sigma A3059)+TBS 0.2% Tween-20) for 1 hr with gentle rocking at room temperature. Plates were then washed with 200 μL of 1× TBST (TBS 0.2% Tween-20) 3 times. After last wash, liquid was removed and 50 μL per well of capture antibody (abcam ITK Y402-ab32507) was added to plates at a 1:1000 dilution in blocking buffer (above). Plates were sealed and rocked at room temperature for 2 hrs. Plates were then washed 3 times with 200 μL of 1× TBST. After last wash, liquid was removed and 45 μL of cell lysate (from above) was added to each plate. Plates were sealed and rocked overnight at 4° C. Next day, cell lysates were removed, and assay plates were washed 3 times with 200 μL of 1× TBST. After last wash, liquid was removed and detection antibody (CST ITK (2F12) #2380) was added at 50 μL per well at a dilution of 1:1000 in blocking buffer. Plates were sealed and rocked at room temperature for 2 hrs. Plates were washed 3 times with 200 uL of 1× TBST. After last wash, liquid was removed, MSD Mouse anti-Rabbit sulfo tag (R32AC-1) was diluted to 1:1000 in blocking buffer. 50 μL was added to each well on the plate. Plates were sealed and incubated at room temperature for 1 hr. Plates were washed 3 times with 200 μL of 1× TBST. After last wash, liquid was removed and 150 μL of 1× MSD Read Buffer T ([…]) was then added to each well for ECL read out. For reading ECL signal, plate is read on a Meso Scale Discovery (MSD) MESO Sector S 600 plate reader. Percent ITK in then calculated as described below. Percent ITK remaining per sample was calculated as follows: [formula] Using Graphpad Prism, % ITK remaining values were plotted as a function of compound concentration. To determine DC50 and Dmax values, resulting curves were fit to the Prism curve-fitting equation “log(inhibitor) vs response-Variable slope (four parameters)” (reported best fit value IC50 used as DC50).

In general, DC50 refers to the midpoint of the concentration-degradation curve. A lower DC50 goes with a more potent degrader. The term Dmax denotes the largest share of the target that was removed.

Turning to `CN(C(=O)CCC1CCN(c2ccc3c(c2)C(=O)N(C2CCC(=O)NC2=O)C3=O)C1)c1ccc2cc(-c3n[nH]c4c3CCC(C)(C)C4)[nH]c2c1` (centres unmarked) [Compound 1, N-(2-(6,6-dimethyl-4,5,6,7-tetrahydro-1H-indazol-3-yl)-1H-indol-6-yl)-3-(1-(2-(2,6-dioxopiperidin-3-yl)-1,3-dioxoisoindolin-5-yl)pyrrolidin-3-yl)-N-methylpropanamide], half-maximal degradation (DC50) was put at 7 nM and the Dmax is 87%.
Compound `CN(C(=O)CCN1CCN(c2ccc3c(c2)C(=O)N(C2CCC(=O)NC2=O)C3=O)CC1)c1ccc2cc(-c3n[nH]c4c3CCC(C)(C)C4)[nH]c2c1` (centres unmarked) [Compound 2, N-(2-(6,6-dimethyl-4,5,6,7-tetrahydro-1H-indazol-3-yl)-1H-indol-6-yl)-3-(4-(2-(2,6-dioxopiperidin-3-yl)-1,3-dioxoisoindolin-5-yl)piperazin-1-yl)-N-methylpropanamide] registered a DC50 of 1.1 nM and a Dmax of 84%.
As for `C[C@@H](C(=O)N(C)c1ccc2cc(-c3n[nH]c4c3CCC(C)(C)C4)[nH]c2c1)N1CCN(CC2CCN(c3ccc4c(c3)n(C)c(=O)n4C3CCC(=O)NC3=O)CC2)CC1` (stereo partly drawn) [Compound 6, (2S)—N-(2-(6,6-dimethyl-4,5,6,7-tetrahydro-1H-indazol-3-yl)-1H-indol-6-yl)-2-(4-((1-(1-(2,6-dioxopiperidin-3-yl)-3-methyl-2-oxo-2,3-dihydro-1H-benzo[d]imidazol-5-yl)piperidin-4-yl)methyl)piperazin-1-yl)-N-methylpropanamide], the DC50 was found to be 0.0041 nM and the Dmax was 81%.
The corresponding values for `C[C@@H](C(=O)N(C)c1ccc2cc(-c3n[nH]c4c3CCC(C)(C)C4)[nH]c2c1)N1CCN(CC2CCN(c3ccc(C(=O)NC4CCC(=O)NC4=O)nc3)CC2)CC1` (stereo partly drawn) [Compound 7, 5-(4-((4-((S)-1-((2-(6,6-dimethyl-4,5,6,7-tetrahydro-1H-indazol-3-yl)-1H-indol-6-yl)(methyl)amino)-1-oxopropan-2-yl)piperazin-1-yl)methyl)piperidin-1-yl)-N-(2,6-dioxopiperidin-3-yl)picolinamide] are 10 nM and 83%.
The corresponding values for `C[C@@H](C(=O)N(C)c1ccc2cc(-c3n[nH]c4c3CCC(C)(C)C4)[nH]c2c1)N1CCN(C[C@H]2CCN(c3ccc4c(c3)C(=O)N(C3CCC(=O)NC3=O)C4=O)C2)CC1` (stereo partly drawn) [Compound 33, (2S)—N-(2-(6,6-dimethyl-4,5,6,7-tetrahydro-1H-indazol-3-yl)-1H-indol-6-yl)-2-(4-(((3R)-1-(2-(2,6-dioxopiperidin-3-yl)-1,3-dioxoisoindolin-5-yl)pyrrolidin-3-yl)methyl)piperazin-1-yl)-N-methylpropanamide] are 1.6 nM and 87%.
The corresponding values for `C[C@@H](C(=O)N(C)c1ccc2cc(-c3n[nH]c4c3CCC(C)(C)C4)[nH]c2c1)N1CCN(C(=O)C2CN(C3CCN(c4ccc5c(c4)C(=O)N(C4CCC(=O)NC4=O)C5=O)CC3)C2)CC1` (stereo partly drawn) [Compound 34, (2S)—N-(2-(6,6-dimethyl-4,5,6,7-tetrahydro-1H-indazol-3-yl)-1H-indol-6-yl)-2-(4-(1-(1-(2-(2,6-dioxopiperidin-3-yl)-1,3-dioxoisoindolin-5-yl)piperidin-4-yl)azetidine-3-carbonyl)piperazin-1-yl)-N-methylpropanamide] are 1 nM and 86%.
Turning to `CN(C(=O)C1CN(C2CCN(c3ccc4c(c3)C(=O)N(C3CCC(=O)NC3=O)C4=O)CC2)C1)c1ccc2cc(-c3n[nH]c4c3CCC(C)(C)C4)[nH]c2c1` (centres unmarked) [Compound 35, N-(2-(6,6-dimethyl-4,5,6,7-tetrahydro-1H-indazol-3-yl)-1H-indol-6-yl)-1-(1-(2-(2,6-dioxopiperidin-3-yl)-1,3-dioxoisoindolin-5-yl)piperidin-4-yl)-N-methylazetidine-3-carboxamide], the 50% degradation concentration (DC50) turned out to be 8 nM and the Dmax came out at 83%.

Values taken from patent US20240279202A1 (NURIX THERAPEUTICS, INC., priority 2021, published 2024).
